Measurements published in ChEMBL document CHEMBL1275409, “Antimicrobial-resistant pathogens in intensive care units in Canada: results of the Canadian National Intensive Care Unit (CAN-ICU) study, 2005-2006” (2008).

What was measured:
Format in all cases: functional
[1] = test system: Klebsiella pneumoniae; experiment: Antimicrobial activity against ESBL producing Klebsiella pneumoniae isolated from ICU patient blood assessed as resistant isolates by broth microdilution method
[2] = test system: Klebsiella pneumoniae; experiment: Antimicrobial activity against ESBL producing Klebsiella pneumoniae isolated from ICU patient urine assessed as resistant isolates by broth microdilution method
[3] = test system: Escherichia coli; experiment: Antimicrobial activity against CTX-M ESBL producing Escherichia coli isolated from ICU patient blood assessed as resistant isolates by broth microdilution method
[4] = test system: Escherichia coli; experiment: Antimicrobial activity against CTX-M ESBL producing Escherichia coli isolated from ICU patient wound assessed as resistant isolates by broth microdilution method
[5] = test system: Enterobacter cloacae; experiment: Antimicrobial activity against carbapenem-resistant Enterobacter cloacae isolated from ICU patient urine assessed as resistant isolates by broth microdilution method
[6] = test system: Enterobacter cloacae; experiment: Antimicrobial activity against carbapenem-resistant Enterobacter cloacae assessed as resistant isolates by broth microdilution method
[7] = test system: Pseudomonas aeruginosa; experiment: Antimicrobial activity against carbapenem-resistant Pseudomonas aeruginosa isolated from ICU patient wound assessed as resistant isolates by broth microdilution method
[8] = test system: Escherichia coli; experiment: Antimicrobial activity against CTX-M ESBL producing Escherichia coli assessed as resistant isolates by broth microdilution method
[9] = test system: Enterobacter cloacae; experiment: Antimicrobial activity against carbapenem-resistant Enterobacter cloacae isolated from ICU patient blood assessed as resistant isolates by broth microdilution method
[10] = test system: Pseudomonas aeruginosa; experiment: Antimicrobial activity against carbapenem-resistant Pseudomonas aeruginosa isolated from ICU patient respiratory tract assessed as resistant isolates by broth microdilution method
[11] = test system: Pseudomonas aeruginosa; experiment: Antimicrobial activity against carbapenem-resistant Pseudomonas aeruginosa assessed as resistant isolates by broth microdilution method
[12] = test system: Klebsiella pneumoniae; experiment: Antimicrobial activity against ESBL producing Klebsiella pneumoniae assessed as resistant isolates by broth microdilution method
[13] = test system: Escherichia coli; experiment: Antimicrobial activity against CTX-M ESBL producing Escherichia coli isolated from ICU patient urine assessed as resistant isolates by broth microdilution method
[14] = test system: Enterobacter cloacae; experiment: Antimicrobial activity against carbapenem-resistant Enterobacter cloacae isolated from ICU patient respiratory tract assessed as resistant isolates by broth microdilution method
[15] = test system: Pseudomonas aeruginosa; experiment: Antimicrobial activity against carbapenem-resistant Pseudomonas aeruginosa isolated from ICU patient urine assessed as resistant isolates by broth microdilution method
[16] = test system: Klebsiella pneumoniae; experiment: Antimicrobial activity against ESBL producing Klebsiella pneumoniae isolated from ICU patient respiratory tract assessed as resistant isolates by broth microdilution method
[17] = test system: Klebsiella pneumoniae; experiment: Antimicrobial activity against ESBL producing Klebsiella pneumoniae isolated from ICU patient wound assessed as resistant isolates by broth microdilution method
[18] = test system: Escherichia coli; experiment: Antimicrobial activity against CTX-M ESBL producing Escherichia coli isolated from ICU patient respiratory tract assessed as resistant isolates by broth microdilution method
[19] = test system: Enterobacter cloacae; experiment: Antimicrobial activity against carbapenem-resistant Enterobacter cloacae isolated from ICU patient wound assessed as resistant isolates by broth microdilution method
[20] = test system: Pseudomonas aeruginosa; experiment: Antimicrobial activity against carbapenem-resistant Pseudomonas aeruginosa isolated from ICU patient blood assessed as resistant isolates by broth microdilution method
[21] = test system: Staphylococcus aureus; experiment: Antimicrobial activity against methicillin-susceptible Staphylococcus aureus isolated from ICU patient urine assessed as resistant isolates by broth microdilution method
[22] = test system: Streptococcus pneumoniae; experiment: Antimicrobial activity against penicillin-resistant Streptococcus pneumoniae isolated from ICU patient wound assessed as resistant isolates by broth microdilution method
[23] = test system: Staphylococcus epidermidis; experiment: Antimicrobial activity against methicillin-susceptible Staphylococcus epidermidis isolated from ICU patient wound assessed as resistant isolates by broth microdilution method
[24] = test system: Staphylococcus aureus; experiment: Antimicrobial activity against methicillin-susceptible Staphylococcus aureus isolated from ICU patient wound assessed as resistant isolates by broth microdilution method
[25] = test system: Streptococcus pneumoniae; experiment: Antimicrobial activity against penicillin-resistant Streptococcus pneumoniae isolated from ICU patient respiratory tract assessed as resistant isolates by broth microdilution method
[26] = test system: Staphylococcus epidermidis; experiment: Antimicrobial activity against methicillin-resistant Staphylococcus epidermidis isolated from ICU patient blood assessed as resistant isolates by broth microdilution method
[27] = test system: Staphylococcus aureus; experiment: Antimicrobial activity against methicillin-resistant Staphylococcus aureus isolated from ICU patient urine assessed as resistant isolates by broth microdilution method
[28] = test system: Enterococcus sp.; experiment: Antimicrobial activity against vancomycin-resistant Enterococcus sp. assessed as resistant isolates by broth microdilution method
[29] = test system: Enterococcus sp.; experiment: Antimicrobial activity against vancomycin-resistant Enterococcus sp. isolated from ICU patient respiratory tract assessed as resistant isolates by broth microdilution method
[30] = test system: Staphylococcus epidermidis; experiment: Antimicrobial activity against methicillin-resistant Staphylococcus epidermidis isolated from ICU patient wound assessed as resistant isolates by broth microdilution method
[31] = test system: Staphylococcus epidermidis; experiment: Antimicrobial activity against methicillin-resistant Staphylococcus epidermidis isolated from ICU patient urine assessed as resistant isolates by broth microdilution method
[32] = test system: Staphylococcus epidermidis; experiment: Antimicrobial activity against methicillin-susceptible Staphylococcus epidermidis isolated from ICU patient urine assessed as resistant isolates by broth microdilution method
[33] = test system: Enterococcus sp.; experiment: Antimicrobial activity against vancomycin-resistant Enterococcus sp. isolated from ICU patient wound assessed as resistant isolates by broth microdilution method
[34] = test system: Staphylococcus aureus; experiment: Antimicrobial activity against methicillin-susceptible Staphylococcus aureus isolated from ICU patient blood assessed as resistant isolates by broth microdilution method
[35] = test system: Enterococcus sp.; experiment: Antimicrobial activity against vancomycin-resistant Enterococcus sp. isolated from ICU patient urine assessed as resistant isolates by broth microdilution method
[36] = test system: Staphylococcus aureus; experiment: Antimicrobial activity against methicillin-resistant Staphylococcus aureus isolated from ICU patient blood assessed as resistant isolates by broth microdilution method
[37] = test system: Staphylococcus epidermidis; experiment: Antimicrobial activity against methicillin-susceptible Staphylococcus epidermidis assessed as resistant isolates by broth microdilution method
[38] = test system: Staphylococcus aureus; experiment: Antimicrobial activity against methicillin-susceptible Staphylococcus aureus assessed as resistant isolates by broth microdilution method
[39] = test system: Staphylococcus aureus; experiment: Antimicrobial activity against methicillin-resistant Staphylococcus aureus isolated from ICU patient wound assessed as resistant isolates by broth microdilution method
[40] = test system: Staphylococcus aureus; experiment: Antimicrobial activity against methicillin-susceptible Staphylococcus aureus isolated from ICU patient respiratory tract assessed as resistant isolates by broth microdilution method
[41] = test system: Staphylococcus aureus; experiment: Antimicrobial activity against methicillin-resistant Staphylococcus aureus assessed as resistant isolates by broth microdilution method
[42] = test system: Staphylococcus epidermidis; experiment: Antimicrobial activity against methicillin-susceptible Staphylococcus epidermidis isolated from ICU patient blood assessed as resistant isolates by broth microdilution method
[43] = test system: Staphylococcus aureus; experiment: Antimicrobial activity against methicillin-resistant Staphylococcus aureus isolated from ICU patient respiratory tract assessed as resistant isolates by broth microdilution method
[44] = test system: Enterococcus sp.; experiment: Antimicrobial activity against vancomycin-resistant Enterococcus sp. isolated from ICU patient blood assessed as resistant isolates by broth microdilution method
[45] = test system: Streptococcus pneumoniae; experiment: Antimicrobial activity against penicillin-resistant Streptococcus pneumoniae assessed as resistant isolates by broth microdilution method
[46] = test system: Staphylococcus epidermidis; experiment: Antimicrobial activity against methicillin-resistant Staphylococcus epidermidis assessed as resistant isolates by broth microdilution method
[47] = test system: Streptococcus pneumoniae; experiment: Antimicrobial activity against penicillin-resistant Streptococcus pneumoniae isolated from ICU patient blood assessed as resistant isolates by broth microdilution method
[48] = test system: Staphylococcus epidermidis; experiment: Antimicrobial activity against methicillin-susceptible Staphylococcus epidermidis isolated from ICU patient respiratory tract assessed as resistant isolates by broth microdilution method

GENTAMICIN
Activity [1]: 9.1% | Activity [2]: 22.2% | Activity [3]: 6.9% | Activity [4]: 6.9% | Activity [5]: 6.3% | Activity [6]: 3% | Activity [7]: 0% | Activity [8]: 3% | Activity [9]: 8.3% | Activity [10]: 0% | Activity [11]: 0% | Activity [12]: 15.2% | Activity [13]: 1.1% | Activity [14]: 1.9% | Activity [15]: 0% | Activity [16]: 14.2% | Activity [17]: 18.9% | Activity [18]: 3.3% | Activity [19]: 0% | Activity [20]: 0%

CC(=O)NC[C@H]1CN(c2ccc(N3CCOCC3)c(F)c2)C(=O)O1 [LINEZOLID]
Activity [21]: 0% | Activity [22]: 0% | Activity [23]: 0% | Activity [24]: 0% | Activity [25]: 0% | Activity [26]: 0% | Activity [27]: 0% | Activity [28]: 1.8% | Activity [29]: 0% | Activity [30]: 0% | Activity [31]: 0% | Activity [32]: 0% | Activity [33]: 1.6% | Activity [34]: 0% | Activity [35]: 1.5% | Activity [36]: 0% | Activity [37]: 0% | Activity [38]: 0% | Activity [39]: 0% | Activity [40]: 0% | Activity [41]: 0% | Activity [42]: 0% | Activity [43]: 0% | Activity [44]: 2.9% | Activity [45]: 0% | Activity [46]: 0% | Activity [47]: 0%

CN[C@H](CC(C)C)C(=O)N[C@H]1C(=O)N[C@@H](CC(N)=O)C(=O)N[C@H]2C(=O)N[C@H]3C(=O)N[C@H](C(=O)N[C@H](C(=O)O)c4cc(O)cc(O)c4-c4cc3ccc4O)[C@H](O)c3ccc(c(Cl)c3)Oc3cc2cc(c3O[C@@H]2O[C@H](CO)[C@@H](O)[C@H](O)[C@H]2O[C@H]2C[C@](C)(N)[C@H](O)[C@H](C)O2)Oc2ccc(cc2Cl)[C@H]1O [VANCOMYCIN]
Activity [21]: 0% | Activity [22]: 0% | Activity [23]: 0% | Activity [24]: 0% | Activity [25]: 0% | Activity [26]: 0% | Activity [27]: 0% | Activity [28]: 6.8% | Activity [48]: 0% | Activity [29]: 3.3% | Activity [30]: 0% | Activity [31]: 0% | Activity [32]: 0% | Activity [33]: 12.5% | Activity [34]: 0% | Activity [35]: 4% | Activity [36]: 0% | Activity [37]: 0% | Activity [38]: 0% | Activity [39]: 0% | Activity [40]: 0% | Activity [41]: 0% | Activity [42]: 0% | Activity [43]: 0% | Activity [44]: 5.4% | Activity [45]: 0% | Activity [46]: 0% | Activity [47]: 0%

CN(C)c1cc(NC(=O)CNC(C)(C)C)c(O)c2c1C[C@H]1C[C@H]3[C@H](N(C)C)C(O)=C(C(N)=O)C(=O)[C@@]3(O)C(O)=C1C2=O [TIGECYCLINE]
Activity [21]: 0% | Activity [3]: 0% | Activity [4]: 0% | Activity [24]: 0% | Activity [27]: 0% | Activity [28]: 0% | Activity [29]: 0% | Activity [5]: 6.3% | Activity [6]: 0.6% | Activity [7]: 3.9% | Activity [8]: 0% | Activity [9]: 0% | Activity [33]: 0% | Activity [10]: 0% | Activity [34]: 0% | Activity [35]: 0% | Activity [36]: 0% | Activity [38]: 0% | Activity [11]: 0.4% | Activity [13]: 0% | Activity [14]: 0% | Activity [15]: 2% | Activity [39]: 0% | Activity [40]: 0% | Activity [41]: 0% | Activity [18]: 0% | Activity [43]: 0% | Activity [19]: 0% | Activity [44]: 0% | Activity [20]: 0%

CC[C@H]1OC(=O)[C@H](C)[C@@H](O[C@H]2C[C@@](C)(OC)[C@@H](O)[C@H](C)O2)[C@H](C)[C@@H](O[C@@H]2O[C@H](C)C[C@H](N(C)C)[C@H]2O)[C@](C)(OC)C[C@@H](C)C(=O)[C@H](C)[C@@H](O)[C@]1(C)O [CLARITHROMYCIN]
Activity [21]: 30% | Activity [22]: 16.7% | Activity [23]: 79.2% | Activity [24]: 23.9% | Activity [25]: 16.4% | Activity [26]: 100% | Activity [27]: 100% | Activity [28]: 65.9% | Activity [29]: 61.5% | Activity [30]: 94.1% | Activity [31]: 100% | Activity [32]: 100% | Activity [33]: 60.3% | Activity [34]: 16.1% | Activity [35]: 70.1% | Activity [37]: 77.4% | Activity [38]: 20.1% | Activity [40]: 19.5% | Activity [42]: 74.6% | Activity [44]: 68.6% | Activity [45]: 15.9% | Activity [46]: 96% | Activity [47]: 13.2%

NCC[C@H](O)C(=O)N[C@@H]1C[C@H](N)[C@@H](O[C@H]2O[C@H](CN)[C@@H](O)[C@H](O)[C@H]2O)[C@H](O)[C@H]1O[C@H]1O[C@H](CO)[C@@H](O)[C@H](N)[C@H]1O [AMIKACIN]
Activity [1]: 0% | Activity [2]: 6.7% | Activity [3]: 0% | Activity [4]: 0% | Activity [5]: 0% | Activity [6]: 0% | Activity [7]: 0% | Activity [8]: 0% | Activity [9]: 0% | Activity [10]: 0% | Activity [11]: 0% | Activity [12]: 2.6% | Activity [13]: 0% | Activity [14]: 0% | Activity [15]: 0% | Activity [16]: 2.4% | Activity [17]: 1.9% | Activity [18]: 0% | Activity [19]: 0% | Activity [20]: 0%
